Drawing on US20250326748A1, “COMPOUNDS AND METHODS FOR MODULATING SPLICING” (REMIX THERAPEUTICS INC., priority 2022, published 2025), this text covers IC50 and AC50 for 12 compounds.

Counter-ions that a name gives are not always drawn. Like-named read-outs stand apart in the source and are kept apart here. Bounds are passed on as bounds.

Assay [1] has as its system HiBiT-tagged MYB protein. The assay is described as follows: HiBiT protein abundance assay, MYB (K562 HiBiT knock-in). The settings on record: HiBiT knock-in cells, 24 hours. The format is cell-based, human. As to the method: Compounds described herein were used to screen for effects on quantitative protein abundance using a HiBit assay system (Promega). Quantitative protein abundance was determined by measuring the protein levels of HiBit-tagged protein targets expressed in cell culture via luminescence using the Nano-Glo HiBiT Lytic Detection System, which uses a split complementation assay format to reconstitute NanoBiT enzyme to generate a luminescent signal. A protein abundance assay was developed such that endogenous protein targets could be modified with the HiBiT peptide tag and their abundance could be assessed after compound treatment. Briefly, K562 cell lines containing a HiBiT-modification were treated with various compounds described herein (e.g., compounds of Formulas (I), or (II)). After treatment for 24 hours, the protein abundance of a specific target was determined by measuring luminescence.
• Promega Nano-Glo HiBiT Lytic Detection System (cat #N3030) • Corning 384-well TC-treated microplates (cat #3570)
Cells were maintained in IMDM with 10% FBS. Before the assay, cells were diluted with […] growth media (IMDM+1% FBS media) and were seeded in a 384-well plate at a density of 10000 cells/well (for each cell line listed in Table 6). Each compound was prepared as a 10-point 3-old serial dilution in DMSO with the top dose at a final concentration of 10 μM in the well. Unmodified K562 cells were added at the previously specified density with DMSO to serve as an assay baseline and positive control (PC) and DMSO only with the respective modified cell lines was added to the negative control (NC) columns. Final DMSO concentration was kept at or below 0.25%. Treated cell plates were placed in an incubator at 37° C. with 5% CO2 for 24 hours. After 24 hours, 25 μL of Complete HiBit Lytic reagent was added to each well at room temperature (e.g. one plate requiring 10 ml Lytic Buffer, 100 μL LgBiT Protein, 200 μL Lytic Substrate), shaken for 5 minutes at 600 RPM, then left to sit for 10 minutes for signal to stabilize before reading on a Spark Cyto plate reader (Tecan) with a 500 ms measurement time.
To determine compound effects on protein abundance of each target in Table 6, the percent response for each respective cell line was calculated at each compound concentration as follows:
For the normalized response at each concentration, a four-parameter logistical regression was fit to the data and the response was interpolated at the 50% value to determine a concentration for protein abundance at 50% (IC50) the untreated control.

The test system of assay [2] is MYB mRNA. Nature of the assay: Splicing RT-qPCR assay, MYB canonical (CJ) and alternative (AJ) junction mRNA. The format is cell-based, human. The settings on record: Homo sapiens; for IC50: canonical junction mRNA; for AC50: alternative junction mRNA, read-out: MYB AJ (AC50, increase in AJ mRNA). The essentials: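 Read-out: one-step RT-qPCR on crude lysates measuring exon-exon junction isoforms, CJ for the canonical transcript and AJ for compound-induced exon inclusion. Normalization used PPIA for adherent A673 and GAPDH or GUSB for K562. Cells received 11 doses, 3-fold apart, top 10 uM, for 24 h.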

The mark [3] stands for this setting: qPCR panel, read-out: MYB CJ (decrease in CJ mRNA levels, IC50).
Where [4] appears, read: RT-qPCR, A673 or K562 cells, 24 hours treatment.
[5] abbreviates: RT-qPCR, A673 or K562 cells, 24 hours treatment, read-out: MYB CJ (IC50, decrease in CJ mRNA).

On to `CN[C@@H]1CN(c2cnc3nc(-c4cc5cn(C)nc5c(C)c4O)ccc3c2)C[C@H]1F` (single isomer, unassigned) [Compound 130], for which the IC50 was 100 to 1000 nM in assay [1], under 100 nM in assay [2] (setting [3]) and under 100 nM in assay [2] (setting [5]). In assay [2] (setting [4]), the AC50 is under 100 nM.
Take `CN[C@H]1CN(c2cnc3nc(-c4cc5cn(C)nc5c(C)c4O)ccc3c2)C[C@@H]1F` (single isomer, unassigned) [Compound 131]: the IC50 in assay [1], in assay [2] (setting [3]) and in assay [2] (setting [5]) was 100 to 1000 nM in each case. Besides, in assay [2] (setting [4]), the AC50 is 100 to 1000 nM.
For the compound `Cc1c(O)c(-c2ccc3cc(N4CCC(NCC5CC5)C4)cnc3n2)cc2cn(C)nc12` (stereo in doubt) [Compound 119, 5-{6-[(3R)-3-[(cyclopropylmethyl)amino]pyrrolidin-1-yl]-1,8-naphthyridin-2-yl}-2,7-dimethylindazol-6-ol], the IC50 in assay [1], in assay [2] (setting [3]) and in assay [2] (setting [5]) was under 100 nM each time. Moreover, in assay [2] (setting [4]), the AC50 was under 100 nM.
For `CNC1CCN(c2cnc3nc(-c4cc5cn(C)nc5c(C)c4O)ncc3c2)C1` (stereo not drawn) [Compound 104, 2,7-dimethyl-5-{6-[3-(methylamino)pyrrolidin-1-yl]pyrido[2,3-d]pyrimidin-2-yl}indazol-6-ol], the IC50 in assay [1], in assay [2] (setting [3]) and in assay [2] (setting [5]) was under 100 nM each time. Besides, in assay [2] (setting [4]), the AC50 is under 100 nM.
On to `Cc1c(O)c(-c2ccc3cc(N4CCC(NCC5CC5)C4)cnc3n2)cc2cn(C)nc12` (stereo not drawn) [Compound 105, 5-(6-{3-[(cyclopropylmethyl)amino]pyrrolidin-1-yl}-1,8-naphthyridin-2-yl)-2,7-dimethylindazol-6-ol], for which the IC50 in assay [1], in assay [2] (setting [3]) and in assay [2] (setting [5]) was under 100 nM in each case. In assay [2] (setting [4]), the AC50 is under 100 nM.
As to `CCNC1CCN(c2cnc3nc(-c4cc5cn(C)nc5c(F)c4O)ccc3c2)C1` (stereo not drawn) [Compound 106, 5-{6-[3-(ethylamino)pyrrolidin-1-yl]-1,8-naphthyridin-2-yl}-7-fluoro-2-methylindazol-6-ol], the half-maximal inhibitory concentration (IC50) in assay [1], in assay [2] (setting [3]) and in assay [2] (setting [5]) was under 100 nM each time. In assay [2] (setting [4]), the AC50 was under 100 nM.
As for `CN[C@@H]1CCN(c2cnc3nc(-c4cc5cn(C)nc5c(C)c4O)ncc3c2)C1` [Compound 107, 2,7-dimethyl-5-{6-[(3R)-3-(methylamino)pyrrolidin-1-yl]pyrido[2,3-d]pyrimidin-2-yl}indazol-6-ol hydrochloride], the IC50 in assay [1], in assay [2] (setting [3]) and in assay [2] (setting [5]) was under 100 nM each time. The AC50 in assay [2] (setting [4]) is under 100 nM.
`CN[C@@H]1CCN(c2cnc3nc(-c4cc5cn(C)nc5c(C)c4O)ccc3c2)C1` [Compound 112]: the IC50 in assay [1], in assay [2] (setting [3]) and in assay [2] (setting [5]) was under 100 nM throughout. For the same compound, in assay [2] (setting [4]), the AC50 was under 100 nM.
On to `Cc1cn2nc(-c3cnc4nc(C5CCNCC5)ccc4c3)cc(C)c2n1` [Compound 115, 6-(2,8-dimethylimidazo[1,2-b]pyridazin-6-yl)-2-(piperidin-4-yl)-1,8-naphthyridine], for which the IC50 in assay [1], in assay [2] (setting [3]) and in assay [2] (setting [5]) was 1000 to 10000 nM each time. The AC50 in assay [2] (setting [4]) fell in the range of 1000 to 10000 nM.
With `CN[C@H]1CCN(c2cnc3nc(-c4cc(C)c5nc(C)cn5n4)ccc3c2)C1` [Compound 116], the IC50 in assay [1], in assay [2] (setting [3]) and in assay [2] (setting [5]) was under 100 nM throughout. In addition, in assay [2] (setting [4]), the concentration at half-maximal activity (AC50) was under 100 nM.
As to `CN[C@@H]1CCN(c2cnc3nc(-c4cc(C)c5nc(C)cn5n4)ccc3c2)C1` [Compound 117], the half-maximal inhibitory concentration (IC50) in assay [1], in assay [2] (setting [3]) and in assay [2] (setting [5]) was under 100 nM each time. Moreover, the AC50 in assay [2] (setting [4]) lay in the range of 100 to 1000 nM.
`Cc1c(O)c(-c2ccc3cc(N4CC[C@@H](NCC5CC5)C4)cnc3n2)cc2cn(C)nc12` [Compound 118]: the IC50 in assay [1], in assay [2] (setting [3]) and in assay [2] (setting [5]) was under 100 nM each time. In addition, the AC50 in assay [2] (setting [4]) is under 100 nM.
